Results on 39 compounds are retold here after US10934304B2, “Spirocyclic compounds” (Recurium IP Holdings, LLC, priority 2016, dated 2021).

Structures are written as SMILES. pIC50: −log10 of the molar value.

The target in one test is ERK2 (Homo sapiens (Human), UniProt P28482). In words: Active ERK1 and ERK2 Kinase Assay (Mobility Shift Assay). Type of test: biochemical. Particulars: activated ERK2, Mobility Shift Assay. Here is the method: Activated ERK1 and ERK2 activity was determined in a Mobility Shift Assay (MSA) format as follows: Compound and kinase solution were prepared with assay buffer (20 mM HEPES, 0.01% Triton X-100, 2 mM DTT, pH7.5) and mixed and incubated in for 30 mins at rt. ERK1 & ERK2 were then activated by the addition of F1-Substrate, ATP and metal solution and incubated for 1 h at rt. After 1 h, the reaction was terminated by the addition of […] of Termination Buffer (QuickScout Screening Assist MSA; Carna Biosciences) to the well. The reaction mixture was applied to LabChip™ system (PerkinElmer), and the product and substrate peptide peaks were separated, analyzed and quantitated. The kinase reaction is evaluated by the product ratio calculated from peak heights of product (P) and substrate(S) peptides (P/(P+S)).
Sequence of ERK2 (P28482 whole entry): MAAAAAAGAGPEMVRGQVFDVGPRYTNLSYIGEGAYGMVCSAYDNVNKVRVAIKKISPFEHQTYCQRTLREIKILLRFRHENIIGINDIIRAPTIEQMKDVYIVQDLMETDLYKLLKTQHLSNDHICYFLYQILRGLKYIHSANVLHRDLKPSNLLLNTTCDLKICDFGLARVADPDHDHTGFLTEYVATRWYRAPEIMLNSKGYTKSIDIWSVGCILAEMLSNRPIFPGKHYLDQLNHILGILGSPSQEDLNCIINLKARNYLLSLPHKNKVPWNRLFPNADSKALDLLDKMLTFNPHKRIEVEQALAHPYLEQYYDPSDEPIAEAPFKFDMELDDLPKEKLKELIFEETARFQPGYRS
`CC(C)Oc1ccc(-c2n[nH]c3ccc(N4CC[C@]5(CCN(CC(=O)N6CC=C(c7ccc(-c8ncn(C)n8)cc7)CC6)C5)C4=O)c(F)c23)cn1` [Example 1, (S)-2-(4-Fluoro-3-(6-isopropoxypyridin-3-yl)-1H-indazol-5-yl)-7-(2-(4-(4-(1-methyl-1H-1,2,4-triazol-3-yl)phenyl)-5,6-dihydropyridin-1(2H)-yl)-2-oxoethyl)-2,7-diazaspiro[4.4]nonan-1-one]: the pIC50 was at most 6.60.
As for `COc1ccc(-c2n[nH]c3ccc(N4CC[C@]5(CCN(CC(=O)N6CC=C(c7ccc(-c8ncn(C)n8)cc7)CC6)C5)C4=O)cc23)cn1` [Example 2], the pIC50 is at least 7.30.
`Cn1cnc(-c2ccc(C3=CCN(C(=O)CN4CC[C@]5(CCN(c6ccc7[nH]nc(N8CCC(F)(F)CC8)c7c6)C5=O)C4)CC3)cc2)n1` [Example 3, (S)-2-(3-(4,4-difluoropiperidin-1-yl)-1H-indazol-5-yl)-7-(2-(4-(4-(1-methyl-1H-1,2,4-triazol-3-yl)phenyl)-5,6-dihydropyridin-1 (2H)-yl)-2-oxoethyl)-2,7-diazaspiro[4.4]nonan-1-one]: the negative logarithm of the IC50 (pIC50) is at least 7.30.

In a further test the test system is A375 (melanoma) cells. In words: Proliferation Assay (CellTiter-Glo). Type of test: cell-based. The settings on record: 3 days incubation, CellTiter-Glo luminescence. Here is the method:
A375 (melanoma), Colo-205 (colon cancer), Miapaca (pancreatic), HPAFII (pancreatic), sNF02.0 (neurofibromatosis type 1), sNF96.2 (neurofibromatosis type 1) and 8505 (Thyroid) cells were grown and maintained in RPMI-1640 medium containing 100 U/mL penicillin-streptomycin and 10% fetal bovine serum. Cells were in growth medium in 96-well opaque-walled clear bottom plates and incubated in the CO2 incubator overnight before treatment. Cells were treated with compounds diluted in DMSO and a 10 point 3-fold serial dilutions were done. Plates were placed in 37° C., 5% CO2 to incubate for 3 days. Before they were developed by adding 100 μL of CellTiter-Glo reagent (Promega) to the assay plate, plates were shaken briefly for 2 mins and allowed to incubate at room temperature for 10 mins. The bottom of the plates was pasted with white back seal and luminescence was recorded with Flexstation3 with setting of luminescence, integration time 500 ms.
Compounds of Formula (I), (II) and (III) are active in this assay as noted in Table 2.
(In general: In ATP-based viability assays light output follows the ATP content of the culture.)
`CC(C)Oc1ccc(-c2n[nH]c3ccc(N4CCC5(CCN(CC(=O)N6CCN(c7ccc(-c8ncn(C)n8)cc7)CC6C)C5)C4=O)nc23)cn1` (mixture of isomers) [Example 85] showed a pIC50 of at least 6.30.
`CC(C)Oc1ccc(-c2n[nH]c3ccc(N4CCC5(CCN(C(C)C(=O)N6CC=C(c7ncc(-c8ncn(C)n8)s7)CC6)C5)C4=O)nc23)cn1` (mixture of isomers) [Example 95] showed a negative-log IC50 (pIC50) of at most 6.00.
Same read-out and setting: with `CC(C(=O)N1CC=C(c2ncc(-c3ncn(C)n3)s2)CC1)N1CCC2(CCN(c3ccc4[nH]nc(-c5ccc(F)cc5)c4n3)C2=O)C1` (mixture of isomers) [Example 96] the figure was at most 6.00; with `COc1ccc(F)c(-c2n[nH]c3ccc(N4CC[C@]5(CCN(CC(=O)N6CCC(c7ccc(-c8ncn(C)n8)cc7)CC6)C5)C4=O)cc23)n1` [Example 75], at least 6.30; with `CC(C)Oc1cnc(-c2n[nH]c3ccc(N4CC[C@]5(CCN(CC(=O)N6CC=C(c7ccc(-c8ncn(C)n8)cc7)CC6)C5)C4=O)cc23)c(F)c1` [Example 78], at most 6.00.
Still for that read-out and setting: the same measure for `CC(C)Oc1ccc(-c2n[nH]c3ccc(N4CCC5(CCN(CC(=O)N6CC=C(c7ccc(-c8ncn(C)n8)cc7)CC6)C5)C4=O)nc23)cn1` (stereo not drawn) [Example 83]: at least 6.30; for `CC(C)Oc1ccc(-c2n[nH]c3ccc(N4CC[C@]5(CCN(CC(=O)N6CCC(c7ncc(-c8ncn(C)n8)s7)CC6)C5)C4=O)nc23)cn1` [Example 86]: at least 6.30; for `CC(C)Oc1ccc(-c2n[nH]c3ccc(N4CC[C@]5(CCN(CC(=O)N6CCN(c7ncc(-c8ncn(C)n8)s7)CC6)C5)C4=O)nc23)cn1` [Example 87]: at least 6.30.
The same measure, in the same setting: with `CCn1cnc(-c2cnc(C3=CCN(C(=O)CN4CC[C@]5(CCN(c6ccc7[nH]nc(-c8ccc(OC(C)C)nc8)c7n6)C5=O)C4)CC3)s2)n1` [Example 88] the figure was at least 6.30; with `Cn1cnc(-c2cnc(C3=CCN(C(=O)CN4CC[C@]5(CCN(c6ccc7[nH]nc(-c8ccc(OC9CCC9)nc8)c7n6)C5=O)C4)CC3)s2)n1` [Example 90], at least 6.30; with `CC(C)Oc1ccc(-c2n[nH]c3ccc(N4CC[C@]5(CCN(CC(=O)N6CC=C(c7ncc(-c8ncn(C)n8)s7)CC6)C5)C4=O)nc23)cc1` [Example 94], at least 6.30.
In turn, `CC(C)Oc1ccc(-c2n[nH]c3ccc(N4CC[C@]5(CCN(CC(=O)N6CC=C(c7ccc(-c8ncn(CCN(C)C)n8)cc7)CC6)C5)C4=O)nc23)cn1` [Example 97] showed a pIC50 of at least 6.30.
Still for that read-out and setting: the same measure for `CC(C)Oc1ccc(-c2n[nH]c3ccc(N4CC[C@]5(CCN(CC(=O)N6CC=C(c7ccc(-c8cn(C)cn8)cc7)CC6)C5)C4=O)nc23)cn1` [Example 98]: at most 6.00; for `CC(C)Oc1ccc(-c2n[nH]c3ccc(N4CC[C@]5(CCN(CC(=O)N6CC=C(c7ncc(-c8cn(C)cn8)s7)CC6)C5)C4=O)nc23)cn1` [Example 99]: at least 6.30; for `Cc1n[nH]c2ccc(-c3n[nH]c4ccc(N5CC[C@]6(CCN(CC(=O)N7CC=C(c8ccc(-c9ncn(C)n9)cc8)CC7)C6)C5=O)nc34)cc12` [Example 100]: at least 6.30.
As for `CC(C)Oc1ccc(-c2n[nH]c3ccc(N4CC[C@]5(CCN(CC(=O)N6CC=C(c7ccc(-c8ncn(C)n8)cc7)CC6)C5)C4=O)nc23)cc1F` [Example 116], the pIC50 is at least 6.30.
In turn, `CC(C)Oc1ccc(-c2n[nH]c3ccc(N4CC[C@]5(CCN(CC(=O)N6CC=C(c7ccc(-c8ncn(C)n8)c(F)c7)CC6)C5)C4=O)nc23)cc1F` [Example 117] showed a pIC50 of at least 6.30.
On the same count and under the same terms, the same measure for `CC(C)Oc1ccc(-c2n[nH]c3ccc(N4CC[C@]5(CCN(CC(=O)N6CC=C(c7ncc(-c8ncn(C)n8)s7)CC6)C5)C4=O)nc23)cc1F` [Example 118]: at least 6.30; for `Cn1cnc(-c2ccc(C3=CCN(C(=O)CN4CC[C@]5(CCN(c6ccc7[nH]nc(-c8ccc(F)c(N9CCCC9)n8)c7c6)C5=O)C4)CC3)cc2)n1` [Example 119]: 6.00 to 6.30.

The test is the same for the next values; noted with them: Homo sapiens, A-375, 72 h, 3 days incubation, CellTiter-Glo luminescence.
As for `CC(C)Nc1cc(-c2c[nH]c(C(=O)N[C@H](CO)c3cccc(Cl)c3)c2)c(Cl)cn1` [BVD-523, reference compound], the negative-log IC50 (pIC50) was at least 6.30.
With `CC(C)Oc1ccc(-c2n[nH]c3ccc(N4CC[C@]5(CCN(CC(=O)N6CC=C(c7ccc(-c8ncn(C)n8)cc7)CC6)C5)C4=O)c(F)c23)cn1` [Example 1, (S)-2-(4-Fluoro-3-(6-isopropoxypyridin-3-yl)-1H-indazol-5-yl)-7-(2-(4-(4-(1-methyl-1H-1,2,4-triazol-3-yl)phenyl)-5,6-dihydropyridin-1(2H)-yl)-2-oxoethyl)-2,7-diazaspiro[4.4]nonan-1-one], the pIC50 was at most 6.00.
Take `COc1ccc(-c2n[nH]c3ccc(N4CC[C@]5(CCN(CC(=O)N6CC=C(c7ccc(-c8ncn(C)n8)cc7)CC6)C5)C4=O)cc23)cn1` [Example 2]: the negative-log IC50 (pIC50) is at least 6.30.
Take `Cn1cnc(-c2ccc(C3=CCN(C(=O)CN4CC[C@]5(CCN(c6ccc7[nH]nc(N8CCC(F)(F)CC8)c7c6)C5=O)C4)CC3)cc2)n1` [Example 3, (S)-2-(3-(4,4-difluoropiperidin-1-yl)-1H-indazol-5-yl)-7-(2-(4-(4-(1-methyl-1H-1,2,4-triazol-3-yl)phenyl)-5,6-dihydropyridin-1 (2H)-yl)-2-oxoethyl)-2,7-diazaspiro[4.4]nonan-1-one]: the pIC50 is 6.00 to 6.30.
In the case of `Cc1ncc(-c2n[nH]c3ccc(N4CC[C@]5(CCN(CC(=O)N6CC=C(c7ccc(-c8ncn(C)n8)cc7)CC6)C5)C4=O)nc23)s1` [Example 30], the pIC50 was at least 6.30.
Take `Cc1noc2ccc(-c3n[nH]c4ccc(N5CC[C@]6(CCN(CC(=O)N7CC=C(c8ccc(-c9ncn(C)n9)cc8)CC7)C6)C5=O)nc34)cc12` [Example 101]: the pIC50 is at least 6.30.
With `CC(C)Oc1ccc(-c2n[nH]c3ccc(N4CC[C@]5(CCN(CC(=O)N6CC=C(c7ccc(-c8ncn(C)n8)cc7)CC6)C5)C4=O)nc23)cc1` [Example 103], the negative logarithm of the IC50 (pIC50) is at least 6.30.
Compound `CC(C)Oc1ccc(-c2n[nH]c3ccc(N4CC[C@]5(CCN(CC(=O)N6CC=C(c7ccc(-c8ncn(C)n8)cn7)CC6)C5)C4=O)nc23)cc1` [Example 104] gave a negative logarithm of the IC50 (pIC50) of at least 6.30.
As to `CC(C)Oc1ccc(-c2n[nH]c3ccc(N4CC[C@]5(CCN(CC(=O)N6CC=C(c7ccc(-c8ncn(C)n8)nc7)CC6)C5)C4=O)nc23)cc1` [Example 105], the pIC50 was 6.00 to 6.30.
Take `COc1cc(-c2n[nH]c3ccc(N4CC[C@]5(CCN(CC(=O)N6CC=C(c7ccc(-c8ncn(C)n8)cc7)CC6)C5)C4=O)nc23)ccc1OC(C)C` [Example 107]: the negative logarithm of the IC50 (pIC50) was at least 6.30.
The compound `COc1cc(-c2n[nH]c3ccc(N4CC[C@]5(CCN(CC(=O)N6CC=C(c7ncc(-c8ncn(C)n8)s7)CC6)C5)C4=O)nc23)ccc1OC(C)C` [Example 108] had a pIC50 of at least 6.30.
`CC(C)Oc1ccc(-c2n[nH]c3ccc(N4CC[C@]5(CCN(CC(=O)N6CC=C(c7ccc(-c8ncn(C)n8)cc7)CC6)C5)C4=O)cc23)cc1` [Example 109] had a negative logarithm of the IC50 (pIC50) of at least 6.30.
Turning to `CC(C)Oc1ccc(-c2n[nH]c3ccc(N4CC[C@]5(CCN(CC(=O)N6CC=C(c7ncc(-c8ncn(C)n8)s7)CC6)C5)C4=O)cc23)cc1` [Example 110], the pIC50 was at least 6.30.
The same measure, in the same setting: the same measure for `CC(C)n1cc(-c2n[nH]c3ccc(N4CC[C@]5(CCN(CC(=O)N6CC=C(c7ccc(-c8ncn(C)n8)cc7)CC6)C5)C4=O)nc23)ccc1=O` [Example 111]: at least 6.30; for `CC(C)Oc1ccc(-c2n[nH]c3ccc(N4CC[C@]5(CCN(CC(=O)N6CCN(c7ncc(-c8ncn(C)n8)s7)CC6)C5)C4=O)nc23)cc1` [Example 112]: at least 6.30.
Compound `Cn1cnc(-c2cnc(C3=CCN(C(=O)CN4CC[C@]5(CCN(c6ccc7[nH]nc(C8CC8)c7n6)C5=O)C4)CC3)s2)n1` [Example 113] had a negative-log IC50 (pIC50) of at least 6.30.
`CC(C)Oc1ccc(-c2n[nH]c3ccc(N4CC[C@]5(CCN(CC(=O)N6CCN(c7ccc(-c8ncn(C)n8)cc7)C[C@H]6C)C5)C4=O)nc23)cn1` [Example 114] had a pIC50 of at most 6.00.
Consider `CC(C)Oc1ccc(-c2n[nH]c3ccc(N4CC[C@]5(CCN(CC(=O)N6CCN(c7ccc(-c8ncn(C)n8)cc7)C[C@@H]6C)C5)C4=O)nc23)cn1` [Example 115], for which the negative-log IC50 (pIC50) was at least 6.30.
Still for that read-out and setting: the same measure for `Cn1nccc1Nc1nccc(-c2ccn([C@H](CO)c3ccc(Cl)c(F)c3)c(=O)c2)n1` [GDC-0994, reference compound]: 6.00 to 6.30; for `O=C(Nc1ccc2[nH]nc(-c3ccncc3)c2c1)[C@@H]1CCN(CC(=O)N2CCN(c3ccc(-c4ncccn4)cc3)CC2)C1` [SCH772984, reference compound]: at least 6.30.

A word on the pIC50: it is the negative decadic logarithm of the IC50, by convention in mol/L.
